In experiment [1] the test system is mast cells. The experiment can be described thus: Mast cell degranulation estimated by beta-hexosaminidase release (IgE/anti-IgE). Format: cell-based. Particulars: 1 hour after IgE stimulation. The protocol:
Degranulation was induced by the addition of IgE followed by the addition of anti-IgE Beta-hexosaminidase was measured 1 hour after IgE stimulation. Reference molecule was cromoglycate.

Experiment [2] relates to Chick Chorioallantoic Membrane (CAM) vessel network. The experiment can be described thus: CAM vessel network following PDT irradiation. Type of experiment: in vivo. Here is the method:
5-ALA (20 mg/ml; pH=6.8) was topically applied on CAM 4 hours before PDT □ For Catechin samples, Catechin (at different concentrations: 1-30 μM) was topically applied on CAM 15 min before PDT-PDT: λ=405 nm irradiance=2.86 mW/cm2 light dose=1.2 J/cm2-10 μM Catechin has the most protective effect against PDT deleterious effect. 5-ALA: aminolevulinique acid.

Experiment [3] has as its system activated mast cells. The experiment can be described thus: IL6 release from activated mast cells. Format: cell-based. The following applies: primed mast cells activated by anti IgE, 6 hours; FIG. 2. Here is the method: Mast cells were obtained from CD34+ progenitors cultivated during 8 weeks in the presence of stem cell factor and IL3. Some mast cells (light grey with spots) were primed during 5 days by IL4 and IgE. Primed mast cells were activated by anti IgE and IL6 release is measured 6 hours following the activation. Masitinib (Masi) a c-kit receptor inhibitor is taken as positive control. Dark grey corresponds to the basal release of IL6 in the absence of mast cells activation. Maximum release of resting mast cells were obtained by the use of a calcium ionophore.

For experiment [4], the system named is human neutrophils. Put plainly: ROS production of PMA-activated neutrophils (chemiluminescence). Format: cell-based. Particulars: activation by 100 ng/ml PMA; FIG. 1. The protocol:
ROS production is measured using a chemiluminescence standard procedure: briefly, one hundred microliters of human neutrophils (4×10^6/mL) were primed with TNF-α at 37° C. for 25 minutes. 100 μL luminol (1 μM final concentration) and HRP (62.5 U/mL final concentration) in HBSS were added, and 150-μL aliquots were transferred to a prewarmed 96-well luminometer plate. Light emission was recorded by a Berthold MicroLumat Plus luminometer (Berthold Technologies, Hartfordshire, United Kingdom) (data output is in relative light units per second)

The conditions of experiment [5]: 10 mg/kg; cited from earlier work.
For experiment [6] the following is noted: read-out: 2,2-diphenyl-1-picrylhydrazyl scavenging IC50; cited from earlier work.
The conditions of experiment [7]: read-out: NO scavenging IC50; cited from earlier work.
The mark [8] stands for this setting: 10−4 M, control without IgE 0.132.
The mark [9] stands for this setting: 10−5 M, control without IgE 0.135.

Like-named read-outs stand apart in the source and are kept apart here.

Consider `O=C(O)c1cc(=O)c2c(OCC(O)COc3cccc4oc(C(=O)O)cc(=O)c34)cccc2o1` [Reference molecule, cromoglycate, reference compound], for which the beta-hexosaminidase release in experiment [1] (setting [8]) is 0.34; in experiment [1] (setting [9]), 0.48.
In the case of (+)Catechin, in experiment [2] (presence of microvessels in the CAM vasculature network, FIG. 5A), the “Catechin concentration at which microvessel protection is evidenced (as low as)” value was 1 µM. Moreover, the “Catechin concentration with the most protective effect against PDT deleterious effect” value in experiment [2] (topically applied on CAM 15 min before PDT, tested 1-30 μM, 5-ALA 20 mg/ml) was determined as 10 µM.
Take `O=C1c2c(O)cc(O)cc2O[C@H](c2ccc(O)c(O)c2)[C@H]1O` [DHQ, Dihydroquercetin]: the “IL6 release from activated mast cells” value in experiment [3] is “inhibitor of IL6 release”. Further, in experiment [4], the “reactive oxygen species (ROS) production by neutrophils” value is on record as “inhibitory effect”. Further, the beta-hexosaminidase release in experiment [1] (setting [8]) was 0.28; in experiment [1] (setting [9]), 0.52.
The IC50 is the concentration that inhibits the measured activity by half. For the compound `Oc1cc(O)cc(/C=C/c2ccc(O)cc2O)c1` [Oxyresveratrol], in experiment [5], the brain infarct volume result was “reducing”, the caspase-3 activation result is “reducing” and the cytochrome c release entry was “reducing”. For the same compound, in experiment [6], the IC50 was 28.9 µM. In addition, in experiment [7], the 50% inhibitory concentration (IC50) is 45.3 µM.
